# Results published in ChEMBL document CHEMBL4387741, “Optimization of novel reversible Bruton's tyrosine kinase inhibitors identified using Tethering-fragment-based screens” (Bioorg Med Chem, 2019).
# Key:
# [1] = test system: Proto-oncogene tyrosine-protein kinase receptor Ret (Homo sapiens), P07949 [M918T]; assay: Inhibition of human partial length RET M918T mutant (E713 to D1014 residues) expressed in bacterial expression system at 1 uM by Kinomescan method relative to control
# [2] = biological target: Proto-oncogene tyrosine-protein kinase receptor Ret (Homo sapiens) (UniProt P07949); assay: Inhibition of wild-type human partial length RET (E713 to D1014 residues) expressed in bacterial expression system at 1 uM by Kinomescan method relative to control
# [3] = biological target: Protein kinase C eta type (Homo sapiens) (UniProt P24723); assay: Inhibition of wild-type human partial length PRKCH (S324 to P683 residues) expressed in bacterial expression system at 1 uM by Kinomescan method relative to control
# [4] = biological target: Membrane-associated tyrosine- and threonine-specific cdc2-inhibitory kinase (Homo sapiens) (UniProt Q99640); assay: Inhibition of wild-type human partial length PKMYT1 (A88 to G366 residues) expressed in bacterial expression system at 1 uM by Kinomescan method relative to control
# [5] = test system: Receptor-type tyrosine-protein kinase FLT3 (Homo sapiens), P36888 [UNDEFINED MUTATION]; assay: Inhibition of human partial length FLT3 ITD mutant expressed in bacterial expression system at 1 uM by Kinomescan method relative to control
# [6] = biological target: 1-phosphatidylinositol 3-phosphate 5-kinase (Homo sapiens) (UniProt Q9Y2I7); assay: Inhibition of wild-type human partial length PIKFYVE (F1512 to C2098 residues) expressed in mammalian expression system at 1 uM by Kinomescan method relative to control
# [7] = biological target: Ephrin type-B receptor 3 (Homo sapiens) (UniProt P54753); assay: Inhibition of wild-type human partial length EPHB3 (Q599 to T928 residues) expressed in bacterial expression system at 1 uM by Kinomescan method relative to control
# [8] = biological target: Ribosomal protein S6 kinase alpha-1 (Homo sapiens) (UniProt Q15418); assay: Inhibition of wild-type human partial length N-terminal RSK1 Kinase domain 1 (M1 to E388 residues) expressed in bacterial expression system at 1 uM by Kinomescan method relative to control
# [9] = test system: Mast/stem cell growth factor receptor Kit (Homo sapiens), P10721 [V559D]; assay: Inhibition of human partial length KIT V559D mutant (Y545 to D952 residues) expressed in bacterial expression system at 1 uM by Kinomescan method relative to control
# [10] = biological target: Myosin light chain kinase, smooth muscle (Homo sapiens) (UniProt Q15746); assay: Inhibition of wild-type human full length MYLK (M854 to E1845 residues) expressed in mammalian expression system at 1 uM by Kinomescan method relative to control
# [11] = test system: Epidermal growth factor receptor (Homo sapiens), P00533 [L858R,T790M]; assay: Inhibition of human partial length EGFR L858R/T790M double mutant (R669 to V1011 residues) expressed in mammalian expression system at 1 uM by Kinomescan method relative to control
# [12] = biological target: Hepatocyte growth factor receptor (Homo sapiens) (UniProt P08581); assay: Inhibition of wild-type human partial length MET (D1010 to S1367 residues) expressed in bacterial expression system at 1 uM by Kinomescan method relative to control
# [13] = biological target: Receptor-interacting serine/threonine-protein kinase 1 (Homo sapiens) (UniProt Q13546); assay: Inhibition of wild-type human partial length RIPK1 (M1 to K305 residues) expressed in bacterial expression system at 1 uM by Kinomescan method relative to control
# [14] = biological target: Serine/threonine-protein kinase SIK3 (Homo sapiens) (UniProt Q9Y2K2); assay: Inhibition of wild-type human partial length QSK (A90 to L395 residues) expressed in mammalian expression system at 1 uM by Kinomescan method relative to control
# [15] = biological target: Tyrosine-protein kinase JAK1 (Homo sapiens) (UniProt P23458); assay: Inhibition of wild-type human partial length JAK1 JH1 catalytic domain (V856 to K1154 residues) expressed in bacterial expression system at 1 uM by Kinomescan method relative to control
# [16] = biological target: Tyrosine-protein kinase ABL1 (Homo sapiens) (UniProt P00519); assay: Inhibition of wild-type human phosphorylated ABL1 (S229 to K512 residues) expressed in mammalian expression system at 1 uM by Kinomescan method relative to control
# [17] = biological target: Ephrin type-A receptor 6 (Homo sapiens) (UniProt Q9UF33); assay: Inhibition of wild-type human partial length EPHA6 (Y700 to E1046 residues) expressed in bacterial expression system at 10 uM by Kinomescan method relative to control
# [18] = test system: Epidermal growth factor receptor (Homo sapiens), P00533 [T790M]; assay: Inhibition of human partial length EGFR T790M mutant (R669 to G1022 residues) expressed in mammalian expression system at 10 uM by Kinomescan method relative to control
# [19] = test system: Phosphatidylinositol 4,5-bisphosphate 3-kinase catalytic subunit alpha isoform (Homo sapiens), P42336 [E542K]; assay: Inhibition of human partial length PIK3CA E542K mutant (R108 to N1068 residues) expressed in mammalian expression system at 10 uM by Kinomescan method relative to control
# [20] = biological target: STE20-like serine/threonine-protein kinase (Homo sapiens) (UniProt Q9H2G2); assay: Inhibition of wild-type human partial length SLK (S14 to A307 residues) expressed in bacterial expression system at 10 uM by Kinomescan method relative to control
# [21] = biological target: Tyrosine-protein kinase BTK (Homo sapiens, UniProt Q06187); details: 10 uM
# Description: Inhibition of wild-type human full length BTK (M1 to S659 residues) expressed in mammalian expression system at 10 uM by Kinomescan method relative to control
# [22] = biological target: MAP kinase-interacting serine/threonine-protein kinase 2 (Homo sapiens) (UniProt Q9HBH9); assay: Inhibition of wild-type human partial length MKNK2 (G63 to S388 residues) expressed in mammalian expression system at 10 uM by Kinomescan method relative to control
# [23] = biological target: Activin receptor type-1-like (Homo sapiens) (UniProt P37023); assay: Inhibition of wild-type human ACVRL1 (L164 to Q503 residues) expressed in bacterial expression system at 10 uM by Kinomescan method relative to control
# [24] = biological target: ALK tyrosine kinase receptor (Homo sapiens) (UniProt Q9UM73); assay: Inhibition of wild-type human partial length ALK (I1088 to E1409 residues) expressed in mammalian expression system at 10 uM by Kinomescan method relative to control
# [25] = biological target: Epithelial discoidin domain-containing receptor 1 (Homo sapiens) (UniProt Q08345); assay: Inhibition of wild-type human partial length DDR1 (R565 to V876 residues) expressed in bacterial expression system at 10 uM by Kinomescan method relative to control
# [26] = biological target: Maternal embryonic leucine zipper kinase (Homo sapiens) (UniProt Q14680); assay: Inhibition of wild-type human full length MELK (M1 to V651 residues) expressed in bacterial expression system at 10 uM by Kinomescan method relative to control
# [27] = biological target: Ephrin type-A receptor 4 (Homo sapiens) (UniProt P54764); assay: Inhibition of wild-type human partial length EPHA4 (T601 to R897 residues) expressed in bacterial expression system at 10 uM by Kinomescan method relative to control
# Sequence of Ephrin type-A receptor 4 (Homo sapiens) (P54764 whole entry, the tested form may be a part): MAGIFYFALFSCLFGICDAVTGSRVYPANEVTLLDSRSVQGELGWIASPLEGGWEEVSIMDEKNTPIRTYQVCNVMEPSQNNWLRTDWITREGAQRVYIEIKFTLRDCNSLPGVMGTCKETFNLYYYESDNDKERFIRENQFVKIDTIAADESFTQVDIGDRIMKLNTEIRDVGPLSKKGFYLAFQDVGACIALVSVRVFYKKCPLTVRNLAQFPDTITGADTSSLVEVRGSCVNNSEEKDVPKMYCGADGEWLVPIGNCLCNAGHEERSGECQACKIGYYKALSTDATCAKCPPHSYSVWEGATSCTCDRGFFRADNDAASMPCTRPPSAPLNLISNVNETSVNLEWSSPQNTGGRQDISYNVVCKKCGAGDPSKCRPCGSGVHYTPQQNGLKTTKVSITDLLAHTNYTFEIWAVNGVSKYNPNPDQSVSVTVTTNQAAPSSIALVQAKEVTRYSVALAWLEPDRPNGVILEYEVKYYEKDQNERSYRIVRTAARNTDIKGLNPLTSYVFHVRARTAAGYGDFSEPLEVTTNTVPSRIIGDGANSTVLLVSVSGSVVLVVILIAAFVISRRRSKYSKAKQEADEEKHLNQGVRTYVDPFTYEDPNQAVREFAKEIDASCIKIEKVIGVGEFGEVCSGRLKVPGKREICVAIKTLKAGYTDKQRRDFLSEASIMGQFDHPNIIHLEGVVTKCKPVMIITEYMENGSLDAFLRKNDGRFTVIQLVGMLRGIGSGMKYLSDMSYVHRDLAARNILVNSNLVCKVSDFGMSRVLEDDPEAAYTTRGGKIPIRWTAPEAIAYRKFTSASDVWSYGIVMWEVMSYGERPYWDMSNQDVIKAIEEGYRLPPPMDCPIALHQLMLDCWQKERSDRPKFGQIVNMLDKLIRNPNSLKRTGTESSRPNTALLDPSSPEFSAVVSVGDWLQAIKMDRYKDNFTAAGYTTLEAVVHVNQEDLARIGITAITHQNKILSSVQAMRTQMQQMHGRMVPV
# Sequence of Ephrin type-A receptor 6 (Homo sapiens) (Q9UF33 whole entry, the tested form may be a part): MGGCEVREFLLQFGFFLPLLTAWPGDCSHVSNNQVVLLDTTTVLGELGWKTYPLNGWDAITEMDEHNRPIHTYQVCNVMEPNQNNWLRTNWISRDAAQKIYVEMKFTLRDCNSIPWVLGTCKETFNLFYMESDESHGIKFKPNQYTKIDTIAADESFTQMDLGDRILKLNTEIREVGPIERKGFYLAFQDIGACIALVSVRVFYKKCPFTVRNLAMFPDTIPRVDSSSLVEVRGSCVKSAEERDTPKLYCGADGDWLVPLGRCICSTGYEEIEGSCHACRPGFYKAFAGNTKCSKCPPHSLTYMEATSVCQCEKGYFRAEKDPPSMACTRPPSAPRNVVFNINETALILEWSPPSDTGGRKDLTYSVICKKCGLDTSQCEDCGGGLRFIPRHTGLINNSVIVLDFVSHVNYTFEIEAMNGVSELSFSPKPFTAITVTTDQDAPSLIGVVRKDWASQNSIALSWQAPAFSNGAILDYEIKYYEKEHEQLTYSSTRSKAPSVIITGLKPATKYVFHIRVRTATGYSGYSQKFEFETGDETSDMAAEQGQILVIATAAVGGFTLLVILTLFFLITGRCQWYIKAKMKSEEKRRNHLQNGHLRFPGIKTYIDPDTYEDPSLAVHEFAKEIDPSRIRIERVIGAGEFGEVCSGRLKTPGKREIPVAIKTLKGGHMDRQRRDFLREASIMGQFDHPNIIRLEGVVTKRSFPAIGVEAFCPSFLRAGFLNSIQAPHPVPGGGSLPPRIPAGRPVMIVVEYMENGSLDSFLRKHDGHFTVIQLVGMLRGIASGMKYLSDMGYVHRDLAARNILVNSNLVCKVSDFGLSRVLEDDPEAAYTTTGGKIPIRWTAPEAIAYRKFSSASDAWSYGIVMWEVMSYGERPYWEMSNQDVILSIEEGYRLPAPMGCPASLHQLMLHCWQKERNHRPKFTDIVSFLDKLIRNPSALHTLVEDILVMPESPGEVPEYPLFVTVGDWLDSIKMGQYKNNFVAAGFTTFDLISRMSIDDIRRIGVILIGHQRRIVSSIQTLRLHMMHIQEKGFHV
# Sequence of Mast/stem cell growth factor receptor Kit (Homo sapiens), P10721 [V559D] (P10721 whole entry V559D, the tested form may be a part): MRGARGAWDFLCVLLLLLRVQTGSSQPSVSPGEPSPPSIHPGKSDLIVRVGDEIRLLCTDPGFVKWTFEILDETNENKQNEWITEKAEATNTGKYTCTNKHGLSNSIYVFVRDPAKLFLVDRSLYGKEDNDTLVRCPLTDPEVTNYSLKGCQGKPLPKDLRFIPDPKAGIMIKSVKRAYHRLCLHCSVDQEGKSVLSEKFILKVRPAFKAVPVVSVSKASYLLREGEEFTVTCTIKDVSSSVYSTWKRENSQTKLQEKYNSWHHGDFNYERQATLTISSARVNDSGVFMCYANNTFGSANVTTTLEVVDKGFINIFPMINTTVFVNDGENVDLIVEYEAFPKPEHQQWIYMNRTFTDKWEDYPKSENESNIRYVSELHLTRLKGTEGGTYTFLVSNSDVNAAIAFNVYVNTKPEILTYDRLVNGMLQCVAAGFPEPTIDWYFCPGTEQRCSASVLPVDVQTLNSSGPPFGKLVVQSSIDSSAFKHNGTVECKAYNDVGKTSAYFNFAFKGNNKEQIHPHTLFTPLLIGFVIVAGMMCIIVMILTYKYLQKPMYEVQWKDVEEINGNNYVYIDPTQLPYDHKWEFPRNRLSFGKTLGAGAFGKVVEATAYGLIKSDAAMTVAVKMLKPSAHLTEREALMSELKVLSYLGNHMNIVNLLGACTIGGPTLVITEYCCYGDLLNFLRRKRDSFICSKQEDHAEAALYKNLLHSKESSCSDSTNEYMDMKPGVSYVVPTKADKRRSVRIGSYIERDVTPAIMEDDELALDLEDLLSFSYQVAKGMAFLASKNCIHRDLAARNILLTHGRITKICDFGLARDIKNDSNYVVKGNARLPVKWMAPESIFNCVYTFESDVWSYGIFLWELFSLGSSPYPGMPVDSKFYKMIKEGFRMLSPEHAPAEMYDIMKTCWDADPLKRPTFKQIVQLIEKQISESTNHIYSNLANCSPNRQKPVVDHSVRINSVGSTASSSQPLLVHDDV
# Sequence of Ephrin type-B receptor 3 (Homo sapiens) (P54753 whole entry, the tested form may be a part): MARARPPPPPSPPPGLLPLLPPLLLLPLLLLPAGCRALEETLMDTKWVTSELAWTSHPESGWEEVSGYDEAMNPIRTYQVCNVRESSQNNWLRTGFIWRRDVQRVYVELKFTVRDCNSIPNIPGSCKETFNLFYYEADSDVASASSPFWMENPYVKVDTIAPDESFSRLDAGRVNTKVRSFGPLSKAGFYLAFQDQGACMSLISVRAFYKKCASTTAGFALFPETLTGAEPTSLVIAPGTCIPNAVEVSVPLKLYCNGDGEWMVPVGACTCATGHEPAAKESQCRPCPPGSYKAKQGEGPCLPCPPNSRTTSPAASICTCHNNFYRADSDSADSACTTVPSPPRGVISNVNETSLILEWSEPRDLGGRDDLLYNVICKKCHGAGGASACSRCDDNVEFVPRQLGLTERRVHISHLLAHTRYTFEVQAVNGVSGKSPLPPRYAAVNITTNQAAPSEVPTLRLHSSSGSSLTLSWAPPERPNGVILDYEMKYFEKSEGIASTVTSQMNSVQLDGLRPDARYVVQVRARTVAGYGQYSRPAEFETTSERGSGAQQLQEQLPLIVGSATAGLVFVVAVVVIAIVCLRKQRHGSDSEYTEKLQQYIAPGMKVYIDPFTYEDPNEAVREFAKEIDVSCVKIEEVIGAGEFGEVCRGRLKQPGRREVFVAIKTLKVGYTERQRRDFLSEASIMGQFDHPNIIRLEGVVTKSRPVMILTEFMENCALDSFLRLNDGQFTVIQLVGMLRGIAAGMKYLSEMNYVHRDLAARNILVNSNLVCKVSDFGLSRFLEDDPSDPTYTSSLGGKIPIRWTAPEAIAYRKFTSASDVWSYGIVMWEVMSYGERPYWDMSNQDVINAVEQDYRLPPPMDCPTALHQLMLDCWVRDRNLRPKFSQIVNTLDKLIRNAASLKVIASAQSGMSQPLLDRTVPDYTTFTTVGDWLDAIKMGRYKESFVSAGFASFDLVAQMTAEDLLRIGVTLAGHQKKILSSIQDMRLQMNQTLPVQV
# Sequence of Tyrosine-protein kinase ABL1 (Homo sapiens) (P00519 whole entry, the tested form may be a part): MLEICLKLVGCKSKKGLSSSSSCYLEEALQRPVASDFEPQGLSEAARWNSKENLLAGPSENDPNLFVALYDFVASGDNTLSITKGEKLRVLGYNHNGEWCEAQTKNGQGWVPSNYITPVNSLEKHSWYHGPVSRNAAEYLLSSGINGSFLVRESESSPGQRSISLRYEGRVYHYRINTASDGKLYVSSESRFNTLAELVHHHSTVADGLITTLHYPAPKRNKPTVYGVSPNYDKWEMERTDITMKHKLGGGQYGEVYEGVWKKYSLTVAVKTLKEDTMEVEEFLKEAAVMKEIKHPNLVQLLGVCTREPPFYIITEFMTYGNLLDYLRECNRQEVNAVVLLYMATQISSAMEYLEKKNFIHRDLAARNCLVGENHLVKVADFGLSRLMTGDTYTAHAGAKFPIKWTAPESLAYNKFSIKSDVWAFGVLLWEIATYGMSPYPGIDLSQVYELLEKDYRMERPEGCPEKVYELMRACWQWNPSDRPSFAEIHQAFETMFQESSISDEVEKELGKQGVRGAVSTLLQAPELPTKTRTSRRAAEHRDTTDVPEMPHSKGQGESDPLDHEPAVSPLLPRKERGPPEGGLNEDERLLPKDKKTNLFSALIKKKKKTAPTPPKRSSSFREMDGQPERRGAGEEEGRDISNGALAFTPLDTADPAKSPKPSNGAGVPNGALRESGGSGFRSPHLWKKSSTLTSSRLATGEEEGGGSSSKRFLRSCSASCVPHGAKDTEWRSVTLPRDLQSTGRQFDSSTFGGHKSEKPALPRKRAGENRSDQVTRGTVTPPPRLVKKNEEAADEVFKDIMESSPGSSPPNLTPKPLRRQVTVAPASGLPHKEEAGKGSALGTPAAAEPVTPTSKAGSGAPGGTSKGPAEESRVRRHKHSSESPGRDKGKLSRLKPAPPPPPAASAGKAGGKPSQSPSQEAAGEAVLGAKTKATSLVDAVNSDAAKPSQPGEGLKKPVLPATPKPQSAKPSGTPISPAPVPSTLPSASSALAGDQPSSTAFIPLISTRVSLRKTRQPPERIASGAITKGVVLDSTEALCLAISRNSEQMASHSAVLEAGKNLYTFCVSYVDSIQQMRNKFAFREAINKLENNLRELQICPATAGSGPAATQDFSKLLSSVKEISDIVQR
smiles,measurement,setting,value
O=C(Nc1cccc([C@@H]2CN(c3ncnc4[nH]ccc34)CCN2CCO)c1)Nc1c(F)cccc1N1CCCC1,inhibition,[1],0.05%
same,inhibition,[2],0.3%
same,inhibition,[3],80%
same,inhibition,[4],84%
same,inhibition,[5],8.7%
same,inhibition,[6],91%
same,inhibition,[7],100%
same,inhibition,[8],90%
same,inhibition,[9],40%
same,inhibition,[10],100%
same,inhibition,[11],97%
same,inhibition,[12],95%
same,inhibition,[13],100%
same,inhibition,[14],93%
same,inhibition,[15],17%
same,inhibition,[16],62%
O=C(Nc1cccc([C@H]2CCCN(c3ncnc4[nH]ccc34)C2)c1)Nc1ccccc1N1CCCC1,inhibition,[17],51%
same,inhibition,[18],66%
same,inhibition,[19],81%
same,inhibition,[20],28%
same,inhibition,[21],0.6%
same,inhibition,[22],34%
same,inhibition,[23],100%
same,inhibition,[24],80%
same,inhibition,[25],3.5%
same,inhibition,[26],36%
same,inhibition,[27],98%
